Experimental data: ChEMBL document CHEMBL5356994, “Synthesis, biological and molecular modelling for 1,3,4-thiadiazole sulfonyl thioureas: bacterial and fungal activity” (RSC Med Chem, 2023)
≈ marks a conversion by molar mass, not a printed value.

Key:
[1] = tested on: Klebsiella pneumoniae; test: Antibacterial activity against Klebsiella pneumoniae assessed as inhibition of bacterial growth incubated for 18 to 20 hrs by microbroth dilution method; assay type: functional; settings: time 18-20 hrs
[2] = tested on: Saccharomyces cerevisiae; test: Antifungal activity against Saccharomyces cerevisiae assessed as inhibition of fungal growth incubated for 72 hrs by agar dilution method; assay type: functional
[3] = tested on: Salmonella typhimurium; test: Antibacterial activity against Salmonella typhimurium assessed as inhibition of bacterial growth incubated for 18 to 20 hrs by microbroth dilution method; assay type: functional, Salmonella enterica subsp. enterica serovar Typhimurium; settings: Salmonella enterica; time 18-20 hrs
[4] = tested on: Fusarium oxysporum; test: Antifungal activity against Fusarium oxysporum assessed as inhibition of fungal growth incubated for 72 hrs by agar dilution method; assay type: functional
[5] = tested on: Streptococcus pneumoniae; test: Antibacterial activity against Streptococcus pneumoniae assessed as inhibition of bacterial growth incubated for 18 to 20 hrs by microbroth dilution method; assay type: functional; settings: time 18-20 hrs
[6] = tested on: Staphylococcus epidermidis; test: Antibacterial activity against Staphylococcus epidermidis assessed as inhibition of bacterial growth incubated for 18 to 20 hrs by microbroth dilution method; assay type: functional; settings: time 18-20 hrs
[7] = tested on: Bacillus subtilis; test: Antibacterial activity against Bacillus subtilis assessed as inhibition of bacterial growth incubated for 18 to 20 hrs by microbroth dilution method; assay type: functional; settings: time 18-20 hrs
[8] = tested on: Aspergillus flavus; test: Antifungal activity against Aspergillus flavus assessed as inhibition of fungal growth incubated for 72 hrs by agar dilution method; assay type: functional
[9] = tested on: Pseudomonas aeruginosa; test: Antibacterial activity against Pseudomonas aeruginosa assessed as inhibition of bacterial growth incubated for 18 to 20 hrs by microbroth dilution method; assay type: functional; settings: time 18-20 hrs
[10] = tested on: Candida albicans; test: Antifungal activity against Candida albicans assessed as inhibition of fungal growth incubated for 72 hrs by agar dilution method; assay type: functional
[11] = tested on: Staphylococcus aureus; test: Antibacterial activity against Staphylococcus aureus assessed as inhibition of bacterial growth incubated for 18 to 20 hrs by microbroth dilution method; assay type: functional; settings: time 18-20 hrs
[12] = tested on: Aspergillus niger; test: Antifungal activity against Aspergillus niger assessed as inhibition of fungal growth incubated for 72 hrs by agar dilution method; assay type: functional
[13] = tested on: Escherichia coli; test: Antibacterial activity against Escherichia coli assessed as inhibition of bacterial growth incubated for 18 to 20 hrs by microbroth dilution method; assay type: functional; settings: time 18-20 hrs
[14] = tested on: Clostridioides difficile; test: Antibacterial activity against Clostridium difficile assessed as inhibition of bacterial growth incubated for 18 to 20 hrs by microbroth dilution method; assay type: functional; settings: time 18-20 hrs
[15] = molecular target: DNA topoisomerase 4 subunit B (Staphylococcus aureus, UniProt P0C1S7); test: Inhibition of Staphylococcus aureus DNA topoisomerase 4 subunit B ATPase activity using relaxed pNO1 plasmid as substrate incubated for 30 mins by microplate reader analysis
[16] = molecular target: Dihydrofolate reductase (Staphylococcus aureus, UniProt P0A017); test: Inhibition of Staphylococcus aureus dihydrofolate reductase using dihydrofolate as substrate in presence of NADPH by microplate reader analysis
[17] = molecular target: DNA gyrase subunit B (Staphylococcus aureus, UniProt P0A0K8); test: Inhibition of Staphylococcus aureus DNA gyrase subunit B ATPase activity using relaxed pNO1 plasmid as substrate incubated for 30 mins by microplate reader analysis
[18] = tested on: Mycobacterium tuberculosis; test: Antitubercular activity against Mycobacterium tuberculosis H37Rv assessed as inhibition of bacterial growth incubated for 24 hrs by two-fold dilution method; assay type: functional
[19] = tested on: Escherichia coli; test: Antibacterial activity against Escherichia coli assessed as inhibition of bacterial growth incubated for 16 to 18 hrs by serial dilution method; assay type: functional; settings: time 16-18 hrs
[20] = tested on: Candida albicans; test: Antifungal activity against Candida albicans assessed as inhibition of fungal growth incubated for 16 to 18 hrs by serial dilution method; assay type: functional; settings: time 16-18 hrs
[21] = tested on: Aspergillus flavus; test: Antifungal activity against Aspergillus flavus assessed as inhibition of fungal growth incubated for 16 to 18 hrs by serial dilution method; assay type: functional; settings: time 16-18 hrs
[22] = tested on: Staphylococcus aureus; test: Antibacterial activity against Staphylococcus aureus assessed as inhibition of bacterial growth incubated for 16 to 18 hrs by serial dilution method; assay type: functional; settings: time 16-18 hrs
[23] = molecular target: Carbonic anhydrase 2 (Homo sapiens, UniProt P00918); test: Inhibition of human carbonic anhydrase II esterase activity using p-nitrophenol acetate as substrate and measured for 3 mins by UV/visible spectrophotometric analysis

Chain of Dihydrofolate reductase (P0A017 whole entry): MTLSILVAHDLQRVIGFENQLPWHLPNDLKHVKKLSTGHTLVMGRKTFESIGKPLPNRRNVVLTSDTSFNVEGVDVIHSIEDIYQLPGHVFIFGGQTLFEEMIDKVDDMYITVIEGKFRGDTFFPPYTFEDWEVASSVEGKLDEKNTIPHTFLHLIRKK
Chain of DNA topoisomerase 4 subunit B (P0C1S7 whole entry): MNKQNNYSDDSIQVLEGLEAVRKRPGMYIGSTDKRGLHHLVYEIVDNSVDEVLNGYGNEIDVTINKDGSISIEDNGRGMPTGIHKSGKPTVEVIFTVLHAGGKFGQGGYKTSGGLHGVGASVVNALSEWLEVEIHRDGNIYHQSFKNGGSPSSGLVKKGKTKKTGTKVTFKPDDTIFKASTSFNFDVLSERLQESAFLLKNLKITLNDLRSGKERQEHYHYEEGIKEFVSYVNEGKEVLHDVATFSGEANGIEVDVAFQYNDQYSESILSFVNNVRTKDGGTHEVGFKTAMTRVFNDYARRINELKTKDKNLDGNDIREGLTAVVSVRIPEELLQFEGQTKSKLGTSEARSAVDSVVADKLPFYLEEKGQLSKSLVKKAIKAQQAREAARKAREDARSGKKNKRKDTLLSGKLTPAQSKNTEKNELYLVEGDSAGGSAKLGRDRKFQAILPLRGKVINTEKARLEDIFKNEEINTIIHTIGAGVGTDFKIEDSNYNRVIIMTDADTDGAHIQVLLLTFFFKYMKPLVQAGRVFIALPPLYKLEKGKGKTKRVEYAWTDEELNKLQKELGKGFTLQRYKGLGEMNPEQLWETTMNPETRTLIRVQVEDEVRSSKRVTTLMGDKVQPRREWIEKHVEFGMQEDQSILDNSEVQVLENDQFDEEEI
Chain of DNA gyrase subunit B (P0A0K8 whole entry): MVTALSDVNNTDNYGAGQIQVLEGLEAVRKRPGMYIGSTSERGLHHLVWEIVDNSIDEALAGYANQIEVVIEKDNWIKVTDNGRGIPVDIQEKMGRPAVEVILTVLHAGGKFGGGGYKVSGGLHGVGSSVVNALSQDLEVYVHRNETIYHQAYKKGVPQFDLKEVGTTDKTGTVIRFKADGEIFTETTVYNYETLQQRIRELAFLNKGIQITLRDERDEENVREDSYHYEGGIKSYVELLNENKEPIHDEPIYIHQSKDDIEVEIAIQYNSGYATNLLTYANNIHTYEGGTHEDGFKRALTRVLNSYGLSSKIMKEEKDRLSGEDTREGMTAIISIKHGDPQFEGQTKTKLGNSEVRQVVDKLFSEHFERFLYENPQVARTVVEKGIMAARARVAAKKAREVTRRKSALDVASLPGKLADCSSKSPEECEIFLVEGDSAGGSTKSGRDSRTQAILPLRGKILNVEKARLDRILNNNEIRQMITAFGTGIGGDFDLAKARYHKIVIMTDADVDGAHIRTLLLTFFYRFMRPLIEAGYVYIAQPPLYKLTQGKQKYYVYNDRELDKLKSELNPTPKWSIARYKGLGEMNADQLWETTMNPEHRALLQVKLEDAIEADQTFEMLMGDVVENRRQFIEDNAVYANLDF

| SMILES | MIC [1] [µg/mL] | MIC [2] [µg/mL] | MIC [3] [µg/mL] | MIC [4] [µg/mL] | MIC [5] [µg/mL] | MIC [6] [µg/mL] | MIC [7] [µg/mL] | MIC [8] [µg/mL] | MIC [9] [µg/mL] | MIC [10] [µg/mL] | MIC [11] [µg/mL] | MIC [12] [µg/mL] | MIC [13] [µg/mL] | MIC [14] [µg/mL] | MIC [18] [µM] | also measured |
| --- | --- | --- | --- | --- | --- | --- | --- | --- | --- | --- | --- | --- | --- | --- | --- | --- |
| Cc1ccc(S(=O)(=O)NC(=S)Nc2nnc(C(C)C)s2)cc1 | 3.12 (≈ 8.77 µM) | 100 (≈ 281 µM) | 6.25 (≈ 17.5 µM) | 6.25 (≈ 17.5 µM) | 3.12 (≈ 8.77 µM) | 1.56 (≈ 4.38 µM) | 1.56 (≈ 4.38 µM) | 200 (≈ 561 µM) | 12.5 (≈ 35.1 µM) | 6.25 (≈ 17.5 µM) | 12.5 (≈ 35.1 µM) | 6.25 (≈ 17.5 µM) | 3.12 (≈ 8.77 µM) | 50 (≈ 140 µM) |  |  |
| Cc1ccc(S(=O)(=O)NC(=S)Nc2nncs2)cc1 | 50 (≈ 159 µM) | 12.5 (≈ 39.8 µM) | 1.56 (≈ 4.96 µM) | 25 (≈ 79.5 µM) | 12.5 (≈ 39.8 µM) | 3.12 (≈ 9.94 µM) | 12.5 (≈ 39.8 µM) | 50 (≈ 159 µM) | 25 (≈ 79.5 µM) | 25 (≈ 79.5 µM) | 3.12 (≈ 9.94 µM) | 200 (≈ 636 µM) | 1.56 (≈ 4.96 µM) | 200 (≈ 636 µM) |  | IC50 [15]: 67600 nM; IC50 [16]: 370 nM; IC50 [17]: 1560 nM |
| CCc1nnc(NC(=S)NS(=O)(=O)c2ccc(C)cc2)s1 | 12.5 (≈ 36.5 µM) | 25 (≈ 73 µM) | 3.12 (≈ 9.12 µM) | 6.25 (≈ 18.2 µM) | 3.12 (≈ 9.12 µM) | 50 (≈ 146 µM) | 1.56 (≈ 4.56 µM) | 6.25 (≈ 18.2 µM) | 50 (≈ 146 µM) | 1.56 (≈ 4.56 µM) | 6.25 (≈ 18.2 µM) | 100 (≈ 292 µM) | 200 (≈ 584 µM) | 0.78 (≈ 2.28 µM) |  | IC50 [15]: 78100 nM; IC50 [16]: 470 nM; IC50 [17]: 3170 nM |
| FC(F)(F)c1cc(NC(=S)Nc2nnc(-c3ccc(Cl)cc3)s2)ccc1Cl |  |  |  |  |  |  |  |  |  |  |  |  |  |  | 10.9 (≈ 4.9 µg/mL) |  |
| NNC(=O)c1ccncc1 [ISONIAZID] |  |  |  |  |  |  |  |  |  |  |  |  |  |  | 17.8 (≈ 2.44 µg/mL) |  |
| Fc1ccc(NC(=S)Nc2nnc(-c3ccc(F)cc3)s2)cc1 |  |  |  |  |  |  |  |  |  |  |  |  |  |  | 10.9 (≈ 3.8 µg/mL) |  |
| Cc1ccc(S(=O)(=O)NC(=S)Nc2nnc(CCC(C)C)s2)cc1 | 0.78 (≈ 2.03 µM) | 0.78 (≈ 2.03 µM) | 0.78 (≈ 2.03 µM) | 0.78 (≈ 2.03 µM) | 50 (≈ 130 µM) | 6.25 (≈ 16.3 µM) | 100 (≈ 260 µM) | 3.12 (≈ 8.13 µM) | 3.12 (≈ 8.13 µM) | 12.5 (≈ 32.5 µM) | 1.56 (≈ 4.06 µM) | 0.78 (≈ 2.03 µM) | 25 (≈ 65 µM) | 1.56 (≈ 4.06 µM) |  | IC50 [15]: 66700 nM; IC50 [16]: 350 nM; IC50 [17]: 1620 nM |
| CCCc1nnc(NC(=S)NS(=O)(=O)c2ccc(C)cc2)s1 | 25 (≈ 70.1 µM) | 1.56 (≈ 4.38 µM) | 25 (≈ 70.1 µM) | 200 (≈ 561 µM) | 1.56 (≈ 4.38 µM) | 25 (≈ 70.1 µM) | 3.12 (≈ 8.77 µM) | 1.56 (≈ 4.38 µM) | 100 (≈ 281 µM) | 3.12 (≈ 8.77 µM) | 50 (≈ 140 µM) | 12.5 (≈ 35.1 µM) | 12.5 (≈ 35.1 µM) | 25 (≈ 70.1 µM) |  |  |
| NC(=O)N/N=C/c1ccc([N+](=O)[O-])o1 [NITROFURAZONE] |  |  |  |  |  |  |  |  |  |  |  |  |  |  |  | MIC [19]: 6.25 µg/mL (≈ 31.5 µM); MIC [20]: 6.25 µg/mL (≈ 31.5 µM); MIC [21]: 6.25 µg/mL (≈ 31.5 µM); MIC [22]: 6.25 µg/mL (≈ 31.5 µM) |
| CC[C@@H](CO)NCCN[C@@H](CC)CO [ETHAMBUTOL] |  |  |  |  |  |  |  |  |  |  |  |  |  |  | 11.5 (≈ 2.35 µg/mL) |  |
| O=S(=O)(NC(=S)Nc1ccccc1)c1ccc(Cl)cc1 |  |  |  |  |  |  |  |  |  |  |  |  |  |  |  | IC50 [23]: 384000 nM |
| CN[C@H](CC(C)C)C(=O)N[C@H]1C(=O)N[C@@H](CC(N)=O)C(=O)N[C@H]2C(=O)N[C@H]3C(=O)N[C@H](C(=O)N[C@H](C(=O)O)c4cc(O)cc(O)c4-c4cc3ccc4O)[C@H](O)c3ccc(c(Cl)c3)Oc3cc2cc(c3O[C@@H]2O[C@H](CO)[C@@H](O)[C@H](O)[C@H]2O[C@H]2C[C@](C)(N)[C@H](O)[C@H](C)O2)Oc2ccc(cc2Cl)[C@H]1O [VANCOMYCIN] |  |  |  |  | 1.56 (≈ 1.08 µM) | 0.78 (≈ 0.538 µM) | 1.56 (≈ 1.08 µM) |  |  |  | 1.56 (≈ 1.08 µM) |  |  | 1.56 (≈ 1.08 µM) |  |  |
| Fc1ccc(NC(=S)Nc2nnc(-c3ccc(Cl)cc3)s2)cc1 |  |  |  |  |  |  |  |  |  |  |  |  |  |  | 11 (≈ 4 µg/mL) |  |
